Test results as given in patent US11951094B2, “TLR2 modulator compounds, pharmaceutical compositions and uses thereof” (Axial Therapeutics, Inc., priority 2020, dated 2024).
Counter-ions that a name gives are not always drawn.

Tests used:
Format in all cases: cell-based
TLR2 [1] = target: T1, TLR2 (Mus musculus, UniProt Q9QUN7); assay: TLR2 functional assay, cytokine release from RAW 264.7 mouse macrophage cell line; details: average of all runs
T1 construct: endogenous in cells; host or cells: RAW 264.7
T1 sequence (Q9QUN7 25-784): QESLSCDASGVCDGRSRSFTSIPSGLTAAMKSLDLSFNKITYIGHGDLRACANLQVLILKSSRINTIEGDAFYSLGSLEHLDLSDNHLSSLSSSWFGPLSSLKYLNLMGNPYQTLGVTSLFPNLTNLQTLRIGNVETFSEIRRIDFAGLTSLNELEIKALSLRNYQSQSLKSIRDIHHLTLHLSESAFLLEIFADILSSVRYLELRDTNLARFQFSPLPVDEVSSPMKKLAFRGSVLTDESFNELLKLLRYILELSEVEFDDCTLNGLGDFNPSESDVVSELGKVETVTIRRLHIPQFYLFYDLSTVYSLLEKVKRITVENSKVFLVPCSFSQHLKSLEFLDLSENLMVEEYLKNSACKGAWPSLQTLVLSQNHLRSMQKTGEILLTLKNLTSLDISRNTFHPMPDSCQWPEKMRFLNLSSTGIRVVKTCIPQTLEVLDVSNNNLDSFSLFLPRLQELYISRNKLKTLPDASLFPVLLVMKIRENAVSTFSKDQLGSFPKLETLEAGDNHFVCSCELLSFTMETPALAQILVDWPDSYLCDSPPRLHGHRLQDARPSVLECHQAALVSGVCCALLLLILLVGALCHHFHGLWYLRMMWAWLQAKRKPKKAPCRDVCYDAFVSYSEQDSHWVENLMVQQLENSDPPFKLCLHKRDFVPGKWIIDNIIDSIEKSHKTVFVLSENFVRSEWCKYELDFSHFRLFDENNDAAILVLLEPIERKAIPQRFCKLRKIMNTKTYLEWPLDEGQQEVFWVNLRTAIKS
Procedure, shortened: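 RAW 264.7 cells plated (about 40,000 per well) and treated with compounds at varying concentrations for 6–24 h (or overnight). Released cytokines in supernatant (e.g. TNF-alpha, IL-1, IL-10, IL-12) measured by ELISA or MSD multiplex; EC50 fitted.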

TLR2 [2] = target: T2, TLR2 (Homo sapiens, UniProt O60603); assay: TLR2 in vitro functional assay, cytokine release from human monocytic cell line THP-1; details: THP-1 human monocytic cell line, average of all runs
T2 sequence (O60603 21-784): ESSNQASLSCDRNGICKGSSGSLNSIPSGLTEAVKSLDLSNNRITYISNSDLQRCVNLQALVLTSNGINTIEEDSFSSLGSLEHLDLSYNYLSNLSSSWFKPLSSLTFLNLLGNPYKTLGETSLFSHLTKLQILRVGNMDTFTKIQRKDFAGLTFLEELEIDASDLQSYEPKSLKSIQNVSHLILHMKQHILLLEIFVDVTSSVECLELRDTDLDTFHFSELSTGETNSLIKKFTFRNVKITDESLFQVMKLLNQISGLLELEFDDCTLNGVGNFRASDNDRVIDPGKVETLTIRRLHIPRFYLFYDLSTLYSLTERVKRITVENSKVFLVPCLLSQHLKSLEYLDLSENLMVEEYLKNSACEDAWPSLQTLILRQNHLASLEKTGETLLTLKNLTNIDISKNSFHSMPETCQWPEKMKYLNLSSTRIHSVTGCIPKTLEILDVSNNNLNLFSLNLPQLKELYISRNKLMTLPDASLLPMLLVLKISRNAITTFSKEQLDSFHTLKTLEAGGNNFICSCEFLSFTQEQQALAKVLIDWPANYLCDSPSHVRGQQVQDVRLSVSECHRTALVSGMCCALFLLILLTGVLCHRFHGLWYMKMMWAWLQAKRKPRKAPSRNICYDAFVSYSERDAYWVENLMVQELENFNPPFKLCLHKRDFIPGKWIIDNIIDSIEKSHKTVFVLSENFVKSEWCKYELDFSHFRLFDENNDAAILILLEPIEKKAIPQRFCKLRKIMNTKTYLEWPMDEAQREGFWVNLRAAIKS
Method: Cells of the immune system respond to TLR agonists in part by secreting cytokines. Functional assays for TLR2 agonists measure cytokine release from purified immune cells or immortalized cell lines derived from immune cells. Cytokine release is measured by standard ELISA approaches or multiplexed analysis using the Meso Scale Discovery (MSD) platform.
Following assay measurements utilizing either HEK-Blue detection or cytokine release, all data is analyzed with the GraphPad Prism8 statistical package to determine EC50, binding and activity metrics for the TLR2 modulators. […]
Numerous cell lines derived from various cell types can respond to TLR2 agonists with stereotyped cytokine and chemokine secretion. In particular, cell lines derived from macrophages respond robustly to TLR2 agonists by secreting a wide array of cytokines, including (but not limited to) TNF-alpha, IL-1, IL-10 and IL-12. The human monocytic cell line THP-1, the mouse macrophage line RAW-264.7, and the rat macrophage line NR8383 were used. For each assay, the respective cell lines were plated into 96-well plates overnight and then treated the following day with various TLR2-engaging compounds at varying concentrations. The next day, supernatants were collected and assayed by multiplex immunodetection for cytokines released (MSD detection kits for respective species).
Data provided in Table 5 is generated using protocols described in Example 45 and 46.

TLR2 [3] = target: T2, TLR2; assay: TLR2 agonist screening assay, HEK-Blue TLR2 reporter cell line (NF-kB-driven SEAP, absorbance at 600 nm); design: host or cells: HEK-293 (HEK-Blue TLR2 reporter cell line); details: HEK-Blue TLR2 reporter cells, agonist mode
Procedure, shortened: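 HEK-293 cells expressing TLR2 with NF-kB-driven SEAP were plated at 40,000 per well. After 16-24 h, they were treated overnight with diluted agonists in detection medium (1% DMSO final). Absorbance at 600 nm was read, and EC50 values were fitted.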

| SMILES | EC50 (TLR2 [1]) [nM] | EC50 (TLR2 [2]) [nM] | EC50 (TLR2 [3]; average of all runs (Table 4)) [nM] | EC50 (TLR2 [3]; average of all runs (Table 3)) [nM] |
| --- | --- | --- | --- | --- |
| CCCCCCCCCCCCCCNC(=O)[C@@H]1CN(C(=O)c2ccc(C(=O)N3C[C@@H](C(=O)N[C@H]4C[C@@H]4c4ccccc4)[C@H](C(=O)N[C@H]4C[C@@H]4c4ccccc4)C3)cc2)C[C@@H]1O (single isomer, unassigned) [Compound 044, (3S,4S)-1-(4-((3R*,4R*)-3-hydroxy-4-(tetradecylcarbamoyl)pyrrolidine-1-carbonyl)benzoyl)-N3,N4-bis((1S,2R)-2-phenylcyclopropyl)pyrrolidine-3,4-dicarboxamide] | – | 0.1 to 50 | – | 0.1 to 50 |
| CCCCCCCO[C@@H]1CN(C(=O)c2ccc(C(=O)N3C[C@@H](C(=O)N[C@H]4C[C@@H]4c4ccccc4)[C@H](C(=O)N[C@H]4C[C@@H]4c4ccccc4)C3)cc2)C[C@H]1C(=O)NCCCCCC (single isomer, unassigned) [Compound 072, (3S,4S)-1-(4-((3S*,4R*)-3-(heptyloxy)-4-(hexylcarbamoyl)pyrrolidine-1-carbonyl)benzoyl)-N3,N4-bis((1S,2R)-2-phenylcyclopropyl)pyrrolidine-3,4-dicarboxamide] | – | 0.1 to 50 | – | 0.1 to 50 |
| CCCCCCNC(=O)[C@H](CNC(=O)c1ccc(C(=O)N2C[C@@H](C(=O)N[C@H]3C[C@@H]3c3ccccc3)[C@H](C(=O)N[C@H]3C[C@@H]3c3ccccc3)C2)cc1)NC(=O)CCCCCC [Compound 025, (3S,4S)-1-(4-(((S)-2-heptanamido-3-(hexylamino)-3-oxopropyl)carbamoyl)benzoyl)-N3,N4-bis((1S,2R)-2-phenylcyclopropyl)pyrrolidine-3,4-dicarboxamide] | – | 0.1 to 50 | – | 0.1 to 50 |
| CCCCCCCCCCCCCCC(=O)N[C@@H]1CCN(C(=O)c2ccc(C(=O)N3C[C@@H](C(=O)N[C@H]4C[C@@H]4c4ccccc4)[C@H](C(=O)N[C@H]4C[C@@H]4c4ccccc4)C3)cc2)C1 [Compound 027, (3S,4S)-1-(4-((R)-3-pentadecanamidopyrrolidine-1-carbonyl)benzoyl)-N3,N4-bis((1S,2R)-2-phenylcyclopropyl)pyrrolidine-3,4-dicarboxamide] | – | 0.1 to 50 | – | 0.1 to 50 |
| CCCCCCCC(=O)N1CCN(C(=O)c2ccc(C(=O)N3C[C@@H](C(=O)N[C@H]4C[C@@H]4c4ccccc4)[C@H](C(=O)N[C@H]4C[C@@H]4c4ccccc4)C3)cc2)C[C@@H]1C(=O)NCCCCCC [Compound 032, (3S,4S)-1-(4-((R)-3-(hexylcarbamoyl)-4-octanoylpiperazine-1-carbonyl)benzoyl)-N3,N4-bis((1S,2R)-2-phenylcyclopropyl)pyrrolidine-3,4-dicarboxamide] | – | 0.1 to 50 | – | 0.1 to 50 |
| CCCCCCCC(=O)N1CCN(C(=O)c2ccc(C(=O)N3C[C@@H](C(=O)N[C@H]4C[C@@H]4c4ccccc4)[C@H](C(=O)N[C@H]4C[C@@H]4c4ccccc4)C3)cc2)CC1C(=O)NCCc1ccc(F)cc1 (stereo partly drawn) [Compound 036, (3S,4S)-1-(4-(3-((4-fluorophenethyl)carbamoyl)-4-octanoylpiperazine-1-carbonyl)benzoyl)-N3,N4-bis((1S,2R)-2-phenylcyclopropyl)pyrrolidine-3,4-dicarboxamide] | – | 0.1 to 50 | – | 0.1 to 50 |
| CCCCCCCCCCCCCCNC(=O)[C@H]1CN(C(=O)c2ccc(C(=O)N3C[C@@H](C(=O)N[C@H]4C[C@@H]4c4ccccc4)[C@H](C(=O)N[C@H]4C[C@@H]4c4ccccc4)C3)cc2)CCN1C [Compound 059, (3S,4S)-1-(4-((R)-4-methyl-3-(tetradecylcarbamoyl)piperazine-1-carbonyl)benzoyl)-N3,N4-bis((1S,2R)-2-phenylcyclopropyl)pyrrolidine-3,4-dicarboxamide formate] | – | 0.1 to 50 | – | 0.1 to 50 |
| CCCCCCCCN1C(=O)CN(C(=O)c2ccc(C(=O)N3C[C@@H](C(=O)N[C@H]4C[C@@H]4c4ccccc4)[C@H](C(=O)N[C@H]4C[C@@H]4c4ccccc4)C3)cc2)C[C@@H]1C(=O)NCCCCCC [Compound 075, (3S,4S)-1-(4-((R)-3-(hexylcarbamoyl)-4-octyl-5-oxopiperazine-1-carbonyl)benzoyl)-N3,N4-bis((1S,2R)-2-phenylcyclopropyl)pyrrolidine-3,4-dicarboxamide] | – | 0.1 to 50 | – | 51 to 350 |
| CCCCCCCCCCCCCCNC(=O)[C@@H]1CN(C(=O)c2ccc(C(=O)N3C[C@@H](C(=O)N[C@H]4C[C@@H]4c4ccccc4)[C@H](C(=O)N[C@H]4C[C@@H]4c4ccccc4)C3)cc2)C[C@H]1OC [Compound 109, (3S,4S)-1-(4-((3S,4R)-3-methoxy-4-(tetradecylcarbamoyl)pyrrolidine-1-carbonyl)benzoyl)-N3,N4-bis((1S,2R)-2-phenylcyclopropyl)pyrrolidine-3,4-dicarboxamide] | > 1000 | 0.1 to 50 | 0.1 to 50 | – |

Now from value to compound:

| EC50 (TLR2 [1]) [nM] | EC50 (TLR2 [2]) [nM] | EC50 (TLR2 [3]; average of all runs (Table 4)) [nM] | EC50 (TLR2 [3]; average of all runs (Table 3)) [nM] | SMILES |
| --- | --- | --- | --- | --- |
| 51 to 350 | 0.1 to 50 | 0.1 to 50 | – | CCCCCCCCCCCCCCNC(=O)[C@H]1CN(C(=O)c2ccc(C(=O)N3C[C@@H](C(=O)N[C@H]4C[C@@H]4c4ccccc4)[C@H](C(=O)N[C@H]4C[C@@H]4c4ccccc4)C3)cc2)C[C@H]1OC (relative stereo) [Compound 108, (3S,4S)-1-(4-((3S*,4S*)-3-methoxy-4-(tetradecylcarbamoyl)pyrrolidine-1-carbonyl)benzoyl)-N3,N4-bis((1S,2R)-2-phenylcyclopropyl)pyrrolidine-3,4-dicarboxamide] |
| – | 51 to 350 | – | 51 to 350 | CCCCCCCCCCCCCCC(=O)N[C@H]1CCN(C(=O)c2ccc(C(=O)N3C[C@@H](C(=O)N[C@H]4C[C@@H]4c4ccccc4)[C@H](C(=O)N[C@H]4C[C@@H]4c4ccccc4)C3)cc2)C1 [Compound 026, (3S,4S)-1-(4-((S)-3-pentadecanamidopyrrolidine-1-carbonyl)benzoyl)-N3,N4-bis((1S,2R)-2-phenylcyclopropyl)pyrrolidine-3,4-dicarboxamide] |
| – | 0.1 to 50 | – | 0.1 to 50 | CCCCCCCC(=O)N1CC(=O)N(Cc2ccc(C(=O)N3C[C@@H](C(=O)N[C@H]4C[C@@H]4c4ccccc4)[C@H](C(=O)N[C@H]4C[C@@H]4c4ccccc4)C3)cc2)C[C@H]1C(=O)NCCCCCC [Compound 076, (3S,4S)-1-(4-(((S)-5-(hexylcarbamoyl)-4-octanoyl-2-oxopiperazin-1-yl)methyl)benzoyl)-N3,N4-bis((1S,2R)-2-phenylcyclopropyl)pyrrolidine-3,4-dicarboxamide] |
| > 1000 | 0.1 to 50 | 0.1 to 50 | – | CCCCCCCCCCCCCCC(=O)N[C@H]1CN(C(=O)c2ccc(C(=O)N3C[C@@H](C(=O)N[C@H]4C[C@@H]4c4ccccc4)[C@H](C(=O)N[C@H]4C[C@@H]4c4ccccc4)C3)cc2)C[C@@H]1OC [Compound 101, (3S,4S)-1-(4-((3S,4S)-3-methoxy-4-pentadecanamidopyrrolidine-1-carbonyl)benzoyl)-N3,N4-bis((1S,2R)-2-phenylcyclopropyl) pyrrolidine-3,4-dicarboxamide] |
| – | 0.1 to 50 | 0.1 to 50 | – | CCCCCCCCCCCCCCNC(=O)[C@@H]1CCCN(C(=O)c2ccc(C(=O)N3C[C@@H](C(=O)N[C@H]4C[C@@H]4c4ccccc4)[C@H](C(=O)N[C@H]4C[C@@H]4c4ccccc4)C3)cc2)C1 [Compound 102, (3S,4S)—N3,N4-bis((1S,2R)-2-phenylcyclopropyl)-1-(4-((R)-3-(tetradecylcarbamoyl)piperidine-1-carbonyl)benzoyl) pyrrolidine-3,4-dicarboxamide] |
| – | 0.1 to 50 | 0.1 to 50 | – | CCCCCCCCCCCCCCNC(=O)[C@H]1CN(C(=O)c2ccc(C(=O)N3C[C@@H](C(=O)N[C@H]4C[C@@H]4c4ccccc4)[C@H](C(=O)N[C@H]4C[C@@H]4c4ccccc4)C3)cc2)C[C@@H]1OC [Compound 110, (3S,4S)-1-(4-((3R,4S)-3-methoxy-4-(tetradecylcarbamoyl)pyrrolidine-1-carbonyl)benzoyl)-N3,N4-bis((1S,2R)-2-phenylcyclopropyl)pyrrolidine-3,4-dicarboxamide] |
